Legend:
Format in all cases: physicochemical
[1] = storage stability in aqueous suspensions and in solid form under humid conditions; details: aqueous suspensions (such as SC-formulations) and storage in solid form under humid conditions; compared with amorphous material or modification I
[2] = thermodynamic stability (DSC, solubility tests and other experiments); details: compared with modification A
Experimental: (§1) The resulting change of particle sizes could lead to a change of the stability of the formulated suspension.
Characteristic for modification C is also the thermogram in differential scanning calorimetry (“DSC”) (see FIG. 3). It has an endothermic peak typically in the range from 130° C. to 142° C., but this will depend on purity. For example, crystal modification C in pure form has typically a peak temperature of 141° C. and an endothermic signal typically around 83 J/g. This thermogram is characteristically different from the thermograms of modifications A and B. Modification A has an endothermic peak at about 112° C. and an endothermic signal of 76; modification B has a peak at about 128° C. and a signal of 90 J/g (see PCT/EP2006/00898, FIGS. 5-6). All measurements were carried out on a Metier Toledo 820 DSC in a closed, but not sealed, pan with a heating rate of 10 K/minute. The typical sample quantity is about 5 mg.

[3] = water solubility; details: over relevant temperature ranges; compared with modification A
Description: as §1

SMILES | storage stability [1] | thermodynamic stability [2] | water solubility [3]
CC(C)C1C2CCC1c1c(NC(=O)c3cn(C)nc3C(F)F)cccc12 (mixture of isomers) [monohydrate in form A, racemic anti-3-difluoromethyl-1-methyl-1H-pyrazole-4-carboxylic acid (9-isopropyl-1,2,3,4-tetrahydro-1,4-methano-naphthalen-5-yl)-amide] | much more stable under those circumstances compared with amorphous material or with the modification I | – | –
CC(C)C1C2CCC1c1c(NC(=O)c3cn(C)nc3C(F)F)cccc12 (mixture of isomers) [modification C, racemic syn-3-difluoromethyl-1-methyl-1H-pyrazole-4-carboxylic acid (9-isopropyl-1,2,3,4-tetrahydro-1,4-methano-naphthalen-5-yl)-amide] | – | substantially better thermodynamic stability than modification A | lower than the water solubility of modification A
